The values that follow are results of earlier work, collected in patent publication US20040058969A1, “Novel epothilone derivatives, method for the preparation thereof and their pharmaceutical use” (priority 2000, published 2004).

For this series, the system named is P-glycoprotein-forming multiresistant tumor lines. The conditions noted are these: in vitro, relative to taxol.

Turning to `C/C(=C\c1csc(C)n1)[C@@H]1C[C@@H]2O[C@@H]2CCC[C@H](C)[C@H](O)[C@@H](C)C(=O)C(C)(C)[C@@H](O)CC(=O)O1` [Epothilone A, epothilone A], the “activity against P-glycoprotein-forming multiresistant tumor lines in comparison to taxol” value is on record as “significantly higher activity”.

With `C/C(=C\c1csc(C)n1)[C@@H]1C[C@@H]2O[C@]2(C)CCC[C@H](C)[C@H](O)[C@@H](C)C(=O)C(C)(C)[C@@H](O)CC(=O)O1` [Epothilone B, epothilone B], the “activity against P-glycoprotein-forming multiresistant tumor lines in comparison to taxol” value is on record as “significantly higher activity”.
